The values that follow come from patent publication US20220204539A1, “CD73 INHIBITORS” (BioArdis LLC, priority 2019, published 2022).

pIC50: −log10 of the molar value.

This experiment deals with T1, Recombinant Human 5′-Nucleotidase (CD73) (Homo sapiens, UniProt P21589).
T1 construct: CHO derived CD73 (Trp27-Lys547), with a C-terminal 6-His tag; 6-His (C); purchased R&D 5795-EN; host or cells: CHO
T1 sequence (P21589 27-547): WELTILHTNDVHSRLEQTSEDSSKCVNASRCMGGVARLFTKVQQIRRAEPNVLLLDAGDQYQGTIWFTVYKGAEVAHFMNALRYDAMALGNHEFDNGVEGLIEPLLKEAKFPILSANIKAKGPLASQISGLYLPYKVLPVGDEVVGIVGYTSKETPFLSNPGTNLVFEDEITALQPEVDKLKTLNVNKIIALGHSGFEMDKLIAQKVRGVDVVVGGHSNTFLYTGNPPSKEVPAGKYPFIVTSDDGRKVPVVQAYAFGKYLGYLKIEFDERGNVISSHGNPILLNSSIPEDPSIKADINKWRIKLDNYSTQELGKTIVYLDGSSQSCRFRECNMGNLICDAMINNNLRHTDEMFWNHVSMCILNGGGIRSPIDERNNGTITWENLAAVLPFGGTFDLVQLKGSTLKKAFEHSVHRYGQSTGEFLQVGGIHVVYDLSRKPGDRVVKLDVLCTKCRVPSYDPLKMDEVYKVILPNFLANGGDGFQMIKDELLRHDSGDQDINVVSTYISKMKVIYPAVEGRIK
The experiment in a line: CD73 Enzyme Assay. The experiment is classed as biochemical. Particulars: human CD73 0.5 nM, AMP 30 μM, PiColorLock phosphate detection; read-out: Potency (IC50, CD73 enzyme assay). The text has this:
Soluble recombinant CD73 catalyzes the conversion of adenosine monophosphate (AMP) to adenosine and inorganic phosphate. The phosphate detection reagent, PiColorLock™ (Innova Bioscience, Cat #303-0125) is based on the change in absorbance of the dye malachite green in the presence of inorganic phosphate (Pi) and this property can be exploited to measure any enzyme that generates Pi. Recombinant Human 5′-Nucleotidase (CD73) (R&D #5795-EN, CHO derived CD73 (Trp27-Lys547), with a C-terminal 6-His tag) was used in the enzymatic assay. This assay was run in a 384-well plate format (Corning® NBS™ 384 well plates, Cat #3640). The basic assay procedure involves two steps: 1) Enzyme reaction: The CD73 enzyme (R&D #5795-EN) is incubated in the presence or absence of compounds. AMP (sigma, cat #01930) is added to start the […] reaction. 2) Detection step: Gold mix is added to the assay system, then stabilizers are added. After incubation the absorbance of the solution is read at OD 635 nm. The recorded OD signal is proportional to the enzyme activity.
Briefly, 25 μl human CD73 (0.5 nM final concentration) in the enzymatic buffer solutions (20 mM Tris, 25 mM NaCl, 1 mM MgCl2, pH 7.5, 0.005% Tween-20) were mixed with various concentrations of the test compound (dissolved in 100% DMSO). These solutions were incubated for 15 min at 25° C., and subsequently 25 μl AMP (30 μM final concentration) was added to start the reaction. The final reaction mixture of enzyme-substrate-compound was incubated for 20 min at 37° C. Meanwhile ‘Gold mix’ was prepared shortly before use by adding 1/100 vol. of accelerator to the PiColorLock™ Gold reagent. 12 μL/well of the ‘Gold mix’ was added to assay plate containing 50 μL enzyme reaction buffer and incubated at 25° C. for 5 min. 5 μL/well stabilizer was added to the assay plate and incubated at 25° C. for 30 min. The absorbance of the well solutions was measured at 635 nm on a Spark 10M instrument (TECAN).
The percent (%) inhibition at each concentration of a compound was calculated relative to the OD value in the Max and Min control wells contained within each assay plate. The Max control wells contained enzyme and substrate as 0% inhibition, and the M control wells only contained substrate without enzyme as 100% inhibition. The concentrations and percent inhibition values for a test compound are plotted and the concentration of the compound required to achieve 50% inhibition (IC50) was determined with a four-parameter logistic dose response equation.

By pIC50 is commonly meant −log10 of the IC50, conventionally taken in molar units. With `O=P(O)(O)CP(=O)(O)OC[C@H]1OC(c2cnc3c(NCc4ccccc4)ncnn23)[C@@H](F)[C@@H]1O` (stereo in doubt) [Compound 3, [({[(2R,3R,4S,5S)-5-[4-(benzylamino)imidazo[2,1-f][1,2,4]triazin-7-yl]-4-fluoro-3-hydroxyoxolan-2-yl]methoxy}(hydroxy)phosphoryl)methyl]phosphonic Acid], the pIC50 was < 6.00.
For `O=P(O)(O)CP(=O)(O)OC[C@H]1O[C@H](c2cnc3c(NCc4ccccc4)ncnn23)[C@@H](F)[C@@H]1O` [Compound 4, [({[(2R,3R,4S,5R)-5-[4-(benzylamino)imidazo[2,1-f][1,2,4]triazin-7-yl]-4-fluoro-3-hydroxyoxolan-2-yl]methoxy}(hydroxy)phosphoryl)methyl]phosphonic Acid] the value was < 6.00; for `O=P(O)(O)CP(=O)(O)OC[C@H]1O[C@@H](c2cnc3c(NC4CCCC4)nc(Cl)nn23)[C@@H](F)[C@@H]1O` [Compound 7, (((((2R,3R,4S,5S)-5-(2-chloro-4-(cyclopentylamino)imidazo[2,1-f][1,2,4]triazin-7-yl)-4-fluoro-3-hydroxytetrahydrofuran-2-yl)methoxy)(hydroxy)phosphoryl)methyl)phosphonic acid], 7.00 to 8.00; for `O=P(O)(O)CP(=O)(O)OC[C@H]1O[C@@H](c2cnc3c(NCC4CCCO4)nc(Cl)nn23)[C@H](O)[C@@H]1O` (stereo partly drawn) [Compound 13, (((((2R,3S,4R,1S)-5-(2-chloro-4-(((tetrahydrofuran-2-yl)methyl)amino)imidazo[2,1-f][1,2,4]triazin-7-yl)-3,4-dihydroxytetrahydrofuran-2-yl)methoxy)(hydroxy)phosphoryl)methyl) phosphonic Acid], 7.00 to 8.00.
For `CN(C)[C@H]1CC[C@H](Nc2nc(Cl)nn3c([C@@H]4O[C@H](COP(=O)(O)CP(=O)(O)O)[C@@H](O)[C@H]4O)cnc23)C1` [Compound 25, (((((2R,3S,4R,5S)-5-(2-chloro-4-(((1S,3S)-3-(dimethylamino)cyclopentyl)amino)imidazo[2,1-f][1,2,4]triazin-7-yl)-3,4-dihydroxytetrahydrofuran-2-yl)methoxy)(hydroxy)phosphoryl)methyl)phosphonic acid] the value was 7.00 to 8.00; for `O=C1C[C@H](Nc2nc(Cl)nn3c([C@@H]4O[C@H](COP(=O)(O)CP(=O)(O)O)[C@@H](O)[C@H]4O)cnc23)CN1` [Compound 26, [({[(2R,3S,4R,5S)-5-{2-chloro-4-[(5-oxopyrrolidin-3-yl)amino]imidazo[2,1-f][1,2,4]triazin-7-yl}-3,4-dihydroxyoxolan-2-yl]methoxy}(hydroxy)phosphoryl)methyl]phosphonic acid], 7.00 to 8.00.
For `O=P(O)(O)CP(=O)(O)OC[C@H]1O[C@@H](c2cnc3c(N4CCC[C@@H]4c4ccccc4)nc(Cl)nn23)[C@H](O)[C@@H]1O` [Compound 31, [({[(2R,3S,4R,5S)-5-{2-chloro-4-[(2R)-2-phenylpyrrolidin-1-yl]imidazo[2,1-f][1,2,4]triazin-7-yl}-3,4-dihydroxyoxolan-2-yl]methoxy}(hydroxy)phosphoryl)methyl]phosphonic Acid] the value was 7.00 to 8.00.
With `CC(C)(C)[C@@H]1CCCN1c1nc(Cl)nn2c([C@@H]3O[C@H](COP(=O)(O)CP(=O)(O)O)[C@@H](O)[C@H]3O)cnc12` [Compound 38, (((((2R,3S,4R,1S)-5-(4-((S)-2-(tert-butyl)pyrrolidin-1-yl)-2-chloroimidazo[2,1-f][1,2,4]triazin-7-yl)-3,4-dihydroxytetrahydrofuran-2-yl)methoxy)(hydroxy)phosphoryl)methyl)phosphonic Acid], the negative-log IC50 (pIC50) is 7.00 to 8.00.
For `CC(C)(C)[C@H]1CCCN1c1nc(Cl)nn2c([C@@H]3O[C@H](COP(=O)(O)CP(=O)(O)O)[C@@H](O)[C@H]3O)cnc12` [Compound 51, (((((2R,3S,4R,1S)-5-(4-((R)-2-(tert-butyl)pyrrolidin-1-yl)-2-chloroimidazo[2,1-f][1,2,4]triazin-7-yl)-3,4-dihydroxytetrahydrofuran-2-yl)methoxy)(hydroxy)phosphoryl)methyl)phosphonic Acid] the value was 7.00 to 8.00; for `COP(=O)(CP(=O)(OC)OC[C@H]1O[C@@H](c2cnc3c(NC4CCCC4)nc(Cl)nn23)[C@H](O)[C@@H]1O)OC` (stereo partly drawn) [Compound 57, ((2R,3S,4R,5S)-5-(2-chloro-4-(cyclopentylamino)imidazo[2,1-f][1,2,4]triazin-7-yl)-3,4-dihydroxytetrahydrofuran-2-yl)methyl methyl ((dimethoxyphosphoryl)methyl)phosphonate], < 6.00; for `O=P(O)(CP1(=O)OCC[C@@H](c2cccc(Cl)c2)O1)OC[C@H]1O[C@@H](c2cnc3c(NC4CCCC4)nc(Cl)nn23)[C@H](O)[C@@H]1O` (stereo partly drawn) [Compound 58, ((2R,3S,4R,5S)-5-(2-chloro-4-(cyclopentylamino)imidazo[2,1-f][1,2,4]triazin-7-yl)-3,4-dihydroxytetrahydrofuran-2-yl)methyl hydrogen (((4S)-4-(3-chlorophenyl)-2-oxido-1,3,2-dioxaphosphinan-2-yl)methyl)phosphonate], 6.00 to 7.00.
Take `COP(=O)(CP1(=O)OCC[C@@H](c2cccc(Cl)c2)O1)OC[C@H]1O[C@@H](c2cnc3c(NC4CCCC4)nc(Cl)nn23)[C@H](O)[C@@H]1O` (stereo partly drawn) [Compound 59, ((2R,3S,4R,5S)-5-(2-chloro-4-(cyclopentylamino)imidazo[2,1-f][1,2,4]triazin-7-yl)-3,4-dihydroxytetrahydrofuran-2-yl)methyl methyl (((4S)-4-(3-chlorophenyl)-2-oxido-1,3,2-dioxaphosphinan-2-yl)methyl)phosphonate]: the negative-log IC50 (pIC50) is < 6.00.
In the case of `O=P(O)(O)CP(=O)(O)OC[C@H]1O[C@@H](c2cnc3c(NC4CCCC4)nc(C4CC4)nn23)[C@H](O)[C@@H]1O` [Compound 60, (((((2R,3S,4R,1S)-5-(4-(cyclopentylamino)-2-cyclopropylimidazo[2,1-f][1,2,4]triazin-7-yl)-3,4-dihydroxytetrahydrofuran-2-yl)methoxy)(hydroxy)phosphoryl)methyl)phosphonic Acid], the pIC50 is 6.00 to 7.00.
For `O=P(O)(O)CP(=O)(O)OC[C@H]1O[C@@H](c2cnc3c(OC4CCCC4)ncnn23)[C@H](O)[C@@H]1O` [Compound 61, (((((2R,3S,4R,1S)-5-(4-(cyclopentyloxy)imidazo[2,1-f][1,2,4]triazin-7-yl)-3,4-dihydroxytetrahydrofuran-2-yl)methoxy)(hydroxy)phosphoryl)methyl)phosphonic Acid] the value was 6.00 to 7.00.
For `COCCOCCOP(=O)(CP(=O)(O)O)OC[C@H]1O[C@@H](c2cnc3c(NC4CCCC4)nc(Cl)nn23)[C@H](O)[C@@H]1O` (stereo partly drawn) [Compound 67, (((((2R,3S,4R,5S)-5-(2-chloro-4-(cyclopentylamino)imidazo[2,1-f][1,2,4]triazin-7-yl)-3,4-dihydroxytetrahydrofuran-2-yl)methoxy)(2-(2-methoxyethoxy)ethoxy)phosphoryl)methyl)phosphonic acid] the value was 7.00 to 8.00; for `N#CCCOP(=O)(CP(=O)(O)O)OC[C@H]1O[C@@H](c2cnc3c(NC4CCCC4)nc(Cl)nn23)[C@H](O)[C@@H]1O` (stereo partly drawn) [Compound 69, (((((2R,3S,4R,5S)-5-(2-chloro-4-(cyclopentylamino)imidazo[2,1-f][1,2,4]triazin-7-yl)-3,4-dihydroxytetrahydrofuran-2-yl)methoxy)(2-cyanoethoxy)phosphoryl)methyl) phosphonic acid], 7.00 to 8.00.
